Laboratory results: US8754068B2, “Modified C-3 betulinic acid derivatives as HIV maturation inhibitors” (priority 2010, dated 2014)

What follows are compounds tested on recombinant NL4-3 virus (Renilla luciferase in nef, Gag P373S) (assay: HIV cell culture assay (luciferase reporter virus in MT-2 cells)). Conditions: NL43.
Assay type: cell-based
Procedure, shortened: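 MT-2 cells in RPMI/10% FBS were infected with recombinant NL4-3 (NLRluc), produced by 293T transfection and titered in MT-2 by luciferase. Serial inhibitor dilutions were present throughout a 4–5 day infection. Antiviral activity was quantified as Renilla luciferase signal via a modified Dual Luciferase read.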

Row | Structure (SMILES) | EC50
1 | C=C(C)[C@@H]1CC[C@]2(C(=O)O)CC[C@]3(C)[C@H](CC[C@@H]4[C@@]5(C)CC=C(c6cccc(-c7nn[nH]n7)c6)C(C)(C)[C@@H]5CC[C@]43C)[C@@H]12 [Example 4i, (1R,3aS,5aR,5bR,7aR,11aS,11bR,13aR,13bR)-9-(3-(2H-tetrazol-5-yl)phenyl)-5a,5b,8,8,11a-pentamethyl-1-(prop-1-en-2-yl)-2,3,3a,4,5,5a,5b,6,7,7a,8,11,11a,11b,12,13,13a,13b-octadecahydro-1H-cyclopenta[a]chrysene-3a-carboxylic acid] | > 1000 nM
2 | C=C(C)[C@@H]1CC[C@]2(C(=O)O)CC[C@]3(C)[C@H](CC[C@@H]4[C@@]5(C)CC=C(c6ccc(C(=O)OC)cc6)C(C)(C)[C@@H]5CC[C@]43C)[C@@H]12 [Example 7, (1R,3aS,5aR,5bR,7aR,11aS,11bR,13aR,13bR)-9-(4-(methoxycarbonyl)phenyl)-5a,5b,8,8,11a-pentamethyl-1-(prop-1-en-2-yl)-2,3,3a,4,5,5a,5b,6,7,7a,8,11,11a,11b,12,13,13a,13b-octadecahydro-1H-cyclopenta[a]chrysene-3a-carboxylic acid] | > 1000 nM
3 | C=C(C)[C@@H]1CC[C@]2(CO)CC[C@]3(C)[C@H](CC[C@@H]4[C@@]5(C)CC=C(c6ccc(-c7nn[nH]n7)cc6)C(C)(C)[C@@H]5CC[C@]43C)[C@@H]12 [Example 5l, ((1R,3aS,5aR,5bR,7aR,11aS,11bR,13aR,13bR)-9-(4-(2H-tetrazol-5-yl)phenyl)-5a,5b,8,8,11a-pentamethyl-1-(prop-1-en-2-yl)-2,3,3a,4,5,5a,5b,6,7,7a,8,11,11a,11b,12,13,13a,13b-octadecahydro-1H-cyclopenta[a]chrysen-3a-yl)methanol] | > 1000 nM
4 | C=C(C)[C@@H]1CC[C@]2(CO)CC[C@]3(C)[C@H](CC[C@@H]4[C@@]5(C)CC=C(c6ccc(C(=O)O)s6)C(C)(C)[C@@H]5CC[C@]43C)[C@@H]12 [Example 5c, 5-((1R,3aS,5aR,5bR,7aR,11aS,11bR,13bR)-3a-(hydroxymethyl)-5a,5b,8,8,11a-pentamethyl-1-(prop-1-en-2-yl)-2,3,3a,4,5,5a,5b,6,7,7a,8,11,11a,11b,12,13,13a,13b-octadecahydro-1H-cyclopenta[a]chrysen-9-yl)thiophene-2-carboxylic acid] | 230 nM
5 | C=C(C)[C@@H]1CC[C@]2(C(=O)O)CC[C@]3(C)[C@H](CC[C@@H]4[C@@]5(C)CC=C(c6cccc(CCC(=O)O)c6)C(C)(C)[C@@H]5CC[C@]43C)[C@@H]12 [Example 4k, (1R,3aS,5aR,5bR,7aR,11aS,11bR,13aR,13bR)-9-(3-(2-carboxyethyl)phenyl)-5a,5b,8,8,11a-pentamethyl-1-(prop-1-en-2-yl)-2,3,3a,4,5,5a,5b,6,7,7a,8,11,11a,11b,12,13,13a,13b-octadecahydro-1H-cyclopenta[a]chrysene-3a-carboxylic acid] | < 1000 nM
